According to patent US20090053237A1, “USE OF PENICILLIN-BINDING PROTEINS OR POLYNUCLEOTIDES OR ANTIBODIES THEREOF FOR PREVENTING OR TREATING BACTERIAL INFECTIONS” (priority 2005, published 2009):

Columns and labels:
Assay type in all cases: cell-based
[1] = system: Neisseria meningitidis strain LNP17723; test: MIC of penicillin G, strain LNP17723; details: strain LNP17723, serogroup C
From the text: (§1) Features of all Neisseria meningitidis strains for which a recombinant Neisseria meningitidis PBP2 fragment lacking the N-terminal transmembrane domain was produced are listed in following Table 3.

[2] = system: Neisseria meningitidis strain LNP16454; test: MIC of penicillin G, strain LNP16454; details: strain LNP16454, serogroup C
From the text: as §1

[3] = system: Neisseria meningitidis strain TR 16454; test: MIC of penicillin G, strain TR 16454; details: strain TR 16454, serogroup C
From the text: as §1

[4] = system: Neisseria meningitidis strain TR TH-41; test: MIC of penicillin G, strain TR TH-41; details: strain TR TH-41, serogroup C
From the text: as §1

[5] = system: Neisseria meningitidis strain LNP17041; test: MIC of penicillin G, strain LNP17041; details: strain LNP17041, serogroup B
From the text: as §1

[6] = system: Neisseria meningitidis strain TR 16504; test: MIC of penicillin G, strain TR 16504; details: strain TR 16504, serogroup C
From the text: as §1

[7] = system: Neisseria meningitidis strain LNP8013; test: MIC of penicillin G, strain LNP8013; details: strain LNP8013, serogroup C
From the text: as §1

[8] = system: Neisseria meningitidis strain LNP16504; test: MIC of penicillin G, strain LNP16504; details: strain LNP16504, serogroup B
From the text: as §1

CC1(C)S[C@@H]2[C@H](NC(=O)Cc3ccccc3)C(=O)N2[C@H]1C(=O)O [Penicillin G]
MIC Penicillin G [1]: 0.75 µg/mL | MIC Penicillin G [2]: 1 µg/mL | MIC Penicillin G [3]: 0.5 µg/mL | MIC Penicillin G [4]: 0.5 µg/mL | MIC Penicillin G [5]: 0.5 µg/mL | MIC Penicillin G [6]: 0.38 µg/mL | MIC Penicillin G [7]: 0.094 µg/mL | MIC Penicillin G [8]: 0.25 µg/mL
